These results are taken from ChEMBL document CHEMBL3856269, “Anti-inflammatory activity effect of 2-substituted-1,4,5,6-tetrahydrocyclopenta[b]pyrrole on TPA-induced skin inflammation in mice” (2016).

Common to all, as to assay type: functional
Assay [1] has as its system Mus musculus. In words: Anti-inflammatory activity in TPA-induced Balb/c mouse ear edema model assessed as reduction in TPA-induced ear edema at 0.75 uM administered topically 6 mins prior to TPA administration measured after 6 hrs relative to control. The arrangement: scale not given: the % may be the effect or the level left.
For assay [2], the system named is Mus musculus. In words: Potency index, ratio of compound to celecoxib potency for reduction in TPA-induced ear edema in Balb/c mouse.
The test system of assay [3] is Mus musculus. Nature of the assay: Anti-inflammatory activity in Balb/c mouse assessed as reduction in TPA-induced hyperkeratosis at 0.75 uM administered topically 6 mins prior to TPA administration measured after 6 hrs by hematoxylin and eosin staining based microscopic analysis.
Assay [4] has as its system Mus musculus. In words: Anti-inflammatory activity in Balb/c mouse assessed as reduction in TPA-induced epidermal hyperplasia at 0.75 uM administered topically 6 mins prior to TPA administration measured after 6 hrs by hematoxylin and eosin staining based microscopic analysis.
Assay [5] concerns Mus musculus. Nature of the assay: Anti-inflammatory activity in Balb/c mouse assessed as reduction in TPA-induced dense dermal leukocyte infiltration at 0.75 uM administered topically 6 mins prior to TPA administration measured after 6 hrs by hematoxylin and eosin staining based microscopic analysis.
The test system of assay [6] is Mus musculus. Nature of the assay: In vivo inhibition of IKK-mediated NF-kB activation in Balb/c mouse assessed as decrease in TPA-induced IL-1beta expression at 0.75 uM administered topically 6 mins prior to TPA administration measured after 6 hrs by immunohistochemical analysis.
The test system of assay [7] is Mus musculus. Nature of the assay: In vivo inhibition of IKK-mediated NF-kB activation in Balb/c mouse assessed as decrease in TPA-induced IL-6 expression at 0.75 uM administered topically 6 mins prior to TPA administration measured after 6 hrs by immunohistochemical analysis.
The subject of assay [8] is Mus musculus. In words: In vivo inhibition of IKK-mediated NF-kB activation in Balb/c mouse assessed as decrease in TPA-induced TNFalpha expression at 0.75 uM administered topically 6 mins prior to TPA administration measured after 6 hrs by immunohistochemical analysis.
In assay [9] the test system is Mus musculus. Nature of the assay: In vivo inhibition of IKK-mediated NF-kB activation in Balb/c mouse assessed as decrease in TPA-induced COX2 expression at 0.75 uM administered topically 6 mins prior to TPA administration measured after 6 hrs by immunohistochemical analysis.
Assay [10] deals with Mus musculus. Nature of the assay: In vivo inhibition of IKK-mediated NF-kB activation in Balb/c mouse assessed as decrease in TPA-induced p65 expression at 0.75 uM administered topically 6 mins prior to TPA administration measured after 6 hrs by immunohistochemical analysis.
Assay [11] concerns Mus musculus. In words: In vivo inhibition of IKK-mediated NF-kB activation in Balb/c mouse assessed as decrease in TPA-induced phospho-Ser536 p65 expression at 0.75 uM administered topically 6 mins prior to TPA administration measured after 6 hrs by immunohistochemical analysis.
Assay [12] has as its system Mus musculus. In words: In vivo inhibition of IKK-mediated NF-kB activation in Balb/c mouse assessed as decrease in TPA-induced phosphorylation of IKBalpha at Ser-32 residue at 0.75 uM administered topically 6 mins prior to TPA administration measured after 6 hrs by immunohistochemical analysis.
Assay [13] concerns Mus musculus. Nature of the assay: In vivo inhibition of IKK activation in Balb/c mouse at 0.75 uM administered topically 6 mins prior to TPA administration measured after 6 hrs by immunohistochemical analysis.

Calls of active or inactive are those of the source. The rule behind the calls is not given here.

For the compound `c1ccc(CCn2c(-c3ccccc3)cc3c2CCC3)cc1`, the Activity in the assay with Mus musculus [1] is reported as -1.86%.
Consider `COc1ccc(Cn2c(-c3ccc(C)cc3)cc3c2CCC3)cc1`, for which the Activity in the assay on Mus musculus [1] came out at 7.71%.
`O=[N+]([O-])c1ccc(-n2c(-c3ccccc3)cc3c2CCC3)cc1`: the Activity in the assay on Mus musculus [1] is on record as -12.9%.
Regarding `c1ccc(CCCn2c(-c3ccccc3)cc3c2CCC3)cc1`, the Activity in the assay on Mus musculus [1] is recorded as -13.56%.
On the same count and under the same terms, to `C#CCn1c(-c2ccccc2)cc2c1CCC2` belongs 8.77%; to `Clc1ccc(-n2c(-c3ccccc3)cc3c2CCC3)cc1`, 19.41%; to `CC(C)Cn1c(-c2ccccc2)cc2c1CCC2`, 6.91%.
Consider `CCCn1c(-c2ccccc2)cc2c1CCC2`, for which the Activity with Mus musculus [1] is listed as 57.31%. For the same compound, the Ratio in the assay with Mus musculus [2] worked out at 3.2. For the same compound, the outcome in the assay on Mus musculus [3], with Mus musculus [4] and with Mus musculus [5] was Active. Moreover, the inhibition result with Mus musculus [6], with Mus musculus [7], with Mus musculus [8], in the assay on Mus musculus [9], in the assay with Mus musculus [10] and with Mus musculus [11] was “Active” throughout. Also, the inhibition entry with Mus musculus [12] and in the assay with Mus musculus [13] was “Active” each time.
For `Brc1ccc(-n2c(-c3ccccc3)cc3c2CCC3)cc1`, in the assay on Mus musculus [1], the Activity is given as 15.96%.
On to `CCCCn1c(-c2ccccc2)cc2c1CCC2`, for which the Activity in the assay on Mus musculus [1] was -9.17%.
As for `COCCCn1c(-c2ccccc2)cc2c1CCC2`, the Activity in the assay on Mus musculus [1] is 1.46%.
Turning to `c1ccc(-c2cc3c(n2C2CC2)CCC3)cc1`, in the assay with Mus musculus [1], the Activity stood at 20.88%.
Regarding `Clc1ccccc1-n1c(-c2ccccc2)cc2c1CCC2`, the Activity with Mus musculus [1] was -6.78%.
Regarding `c1ccc(-c2cc3c(n2-c2ccccc2)CC(c2ccccc2)C3)cc1` (configuration not stated), the Activity in the assay with Mus musculus [1] is 16.09%.
Consider `c1ccc(-c2cc3c(n2-c2ccccc2)CCC3)cc1`, for which, in the assay on Mus musculus [1], the Activity is listed as -0.93%.
Still for that read-out and setting: the result for `c1ccc(-c2cc3c(n2C2CCCCC2)CCC3)cc1` reads 19.02%.
As to `Cc1ccc(-c2cc(C(F)(F)F)nn2-c2ccc(S(N)(=O)=O)cc2)cc1` [CELECOXIB], the Activity in the assay with Mus musculus [1] is 17.95%. Further, the outcome with Mus musculus [3], in the assay with Mus musculus [4] and in the assay on Mus musculus [5] was Active. In addition, the inhibition result in the assay with Mus musculus [6], in the assay with Mus musculus [7], in the assay with Mus musculus [8], in the assay with Mus musculus [9], with Mus musculus [10] and with Mus musculus [11] was “Active” in each case.
As for `C#CCn1c(-c2ccc(C)cc2)cc2c1CCC2`, the Activity with Mus musculus [1] was 4.92%.
As for `COc1ccc(Cn2c(-c3ccccc3)cc3c2CCC3)cc1`, the Activity in the assay on Mus musculus [1] amounted to 2.93%.
Take `COc1ccc(-c2cc3c([nH]2)CCC3)cc1`: the Activity in the assay on Mus musculus [1] was 17.55%.
For `c1ccc(-c2cc3c([nH]2)CCC3)cc1`, the Activity with Mus musculus [1] was found to be 10.23%.
Consider `c1ccc(Cn2c(-c3ccccc3)cc3c2CCC3)cc1`, for which the Activity in the assay with Mus musculus [1] stood at 25.66%.
For the compound `CCn1c(-c2ccccc2)cc2c1CCC2`, the Activity with Mus musculus [1] worked out at 13.56%.
As for `Cc1ccc(-c2cc3c(n2-c2ccccc2)CCC3)cc1`, the Activity in the assay with Mus musculus [1] is 0.53%.
On to `CC(C)(C)c1cc2c(n1-c1ccccc1)CCC2`, for which, in the assay on Mus musculus [1], the Activity is reported as -0.53%.
Still for that read-out and setting: to `CC(C)(C)c1cc2c([nH]1)CCC2` belongs 9.71%.
